# Where a SMILES comes first, the peptide text is derived from it. The star is where a group is joined. Cbz = O=C(OCc1ccccc1)*; CH2F = FC*
# Experiments:
# [1] = system: primary RPE cells; test: Viability of primary RPE cells treated with poly I:C (Cell Counting Kit-8); type: cell-based, mice; conditions: WT primary RPE cells, 5 μg/ml poly I:C for 48 hours
# Experimental: As described in Example 11, primary RPE cells were extracted from the retina of mice and cultured in the presence of 5 μg/ml of poly I:C for 48 hours or with PBS. Cell viability was measured using Cell Counting Kit-8 (Dojindo Laboratories, Kumamoto, Japan). This assay is based on the cleavage of 2-(2-methoxy-4-nitrophenyl)-3-(4-nitrophenyl)-5-(2,4-disulfophenyl)-2H-tetrazolium, monosodium salt (WST-8) by the mitochondrial dehydrogenase enzyme to produce a formazan dye. After incubation with WST-8 for two hours at 37° C., absorbance was measured at 450 nm to determine cell viability.
# [2] = system: photoreceptors; test: In vivo propidium iodide staining of photoreceptors after retinal detachment, wild-type retina; set-up: species or system mouse; conditions: three days after retinal detachment
# Experimental: In vivo propidium iodide (PI) staining was performed by injecting 5 μl of PI (50 μg/ml) into the subretinal space three days after retinal detachment. After two hours, the eyes were enucleated and 10 μm thick cryosections were cut, air-dried, and fixed in 100% ethanol. DAPI was used to counterstain the nuclei. The center of the detached retina was photographed by fluorescence microscope, and the number of PI-positive cells in ONL was analyzed by ImageJ software.
# (*, P<0.05; **, P<0.01; scale bar, 100 μm.)
# [3] = system: photoreceptors; test: TEM quantification of photoreceptor death after retinal detachment in WT mice; type: in vivo; conditions: day three after retinal detachment
# Experimental: TEM was performed as previously described (Hisatomi T et al. (2008). J. CLIN. INVEST. 118:2025-2038). […] Over 200 photoreceptors each eye were photographed and subjected to quantification of cell death modes in a masked fashion. Photoreceptors showing cellular shrinkage and nuclear condensation were defined as apoptotic cells, while photoreceptors associated with cellular and organelle swelling and discontinuities in nuclear and plasma membrane were defined as necrotic cells. The presence of electron-dense granular materials were reported to occur subsequent to both apoptotic and necrotic cell death and cells with these findings were labeled simply as end-stage cell death/unclassified (Hisatomi T et al. (2003) AM. J. PATHOL. 162:1869-1879; Erickson P A et al. (1983) INVEST. OPHTHALMOL. VIS. SCI. 24:927-942).
# The morphology of the RIP-3−/− retina after retinal detachment was also assessed by TEM. […] RIP-3 deficiency inhibits the switch to necrotic cell death by Z-VAD treatment and prevents photoreceptor death after retinal detachment. Scale bar, 5 μm.
# [4] = system: photoreceptors; test: Normalized ONL thickness ratio after experimental retinal detachment; type: in vivo, rat; conditions: subretinal Z-VAD 300 μM and/or Nec-1 400 μM
# Experimental: Photoreceptor death was also assessed by TUNEL analysis at three days after retinal detachment in retina treated with either vehicle, Nec-1, Z-VAD or Nec-1+Z-VAD. […] Nine sections for each eye specimen were randomly selected, and the central area of detached retina and the mid-peripheral region of attached retina were photographed. The ONL thickness ratio was measured at ten points in each section by masked observers. […] (GCL: ganglion cell layer, INL: inner nuclear layer. *, P<0.05. Scale bar, 100 μm). […]
# TNF-α protein contents in rat retina were determined using ELISA Kit for rat TNF-α (Invitrogen, Carlsbad, Calif.). Goat anti-mouse/rat TNF-α blocking antibody was purchased from R&D Systems (Minneapolis, Minn.). The rat eyes were subretinally injected with 1% of sodium hyaluronate containing 0.1 mg/ml of anti-TNF-α antibody or control antibody.
# [5] = system: photoreceptors; test: Poly I:C-induced dry AMD model, TUNEL-positive cells in ONL; type: in vivo, mice; conditions: compared with vehicle
# Description: In this example, the mechanism of photoreceptor cell death in dry AMD was investigated using a polyinosinic:polycytidylic acid (Poly I:C)-induced dry AMD model (Yang et al. (2009) NEJM 359(14):1456-63). Poly I:C is a synthetic double-stranded RNA (dsRNA) analog that activates toll-like receptor 3 (TLR3) signaling (FIG. 20A). Furthermore, dsRNA are known to exist in the drusen of human AMD patients. As depicted in FIG. 20A, activation of the TLR3 signaling results in activation of RIP-1 kinase pathway. […] In the experiments described herein, 2-3 μl of Poly I:C (1 mg/ml) was injected into the subretinal space of the eye (e.g., approximately 2-3 μg of Poly I:C was administered to the eye) to induce AMD.
# The thickness of the ONL was determined by the National Institutes of Health ImageJ software. […] Specifically, the number of TUNEL-positive cells in the RIP-3−/− mice treated with poly I:C was at least three fold less than control mice consistent with RIP-3 playing a role in mediating programmed necrosis in AMD (FIG. 22B).
# To determine the effect of Nec-1 and a pan-caspase inhibitor in the treatment of AMD, TUNEL assay was performed to assess photoreceptor cell death in the poly I:C induced AMD model. […] The thickness of ONL was also measured.
# [6] = system: carbonyl adducts of proteins; test: Protein carbonyl ELISA (oxidative retinal damage) after retinal detachment; type: in vivo; conditions: day three after retinal detachment, wild type
# Experimental: Recent studies reported that RIP kinases regulate downstream ROS production during programmed necrosis (Cho Y S et al. (2009) CELL 137:1112-1123; Zhang D W et al. (2009) SCIENCE 325:332-336; Kim et al. (2007) MOL CELL 26:675-687). ELISA for carbonyl adducts of proteins was used to examine oxidative retinal damage following retinal detachment. Specifically, the amounts of protein carbonyls were determined by using OxiSelect™ Protein Carbonyl ELISA Kit (Cell Biolabs, San Diego, Calif.).
smiles,measurement,setting,value
"COC(=O)CC(NC(=O)C(C)NC(=O)C(NC(=O)OCc1ccccc1)C(C)C)C(=O)CF (stereo not drawn) [Z-VAD, Benzyloxycarbonyl-Val-Ala-Asp(OMe)-fluoromethylketone] (Cbz-Val-Ala-Asp(OMe)-CH2F; configuration not given here)",viability of RPE cells,[1],did not protect WT RPE cells
same,number of PI-positive photoreceptors in the ONL,[2],817.4±104.2 cells/mm^2
same,% apoptotic cells (TEM),[3],13.3±1.5%
same,% necrotic cells (TEM),[3],22.1±1.0%
same,% unclassified (TEM),[3],1.0±0.6%
same,normalized ONL thickness ratio,[4]; five days after retinal detachment,0.54±0.10
same,normalized ONL thickness ratio,[4]; three days after retinal detachment,0.72±0.08
same,number of TUNEL-positive cells in ONL,[5],slight effect
same,carbonyl contents per mg protein,[6],significant increase of carbonyl contents
